From patent US20190070204A1, “PROLIFERATIVE AGENT FOR FAECALIBACTERIUM” (B FOOD SCIENCE CO., LTD., priority 2016, published 2019)

Tests used:
Faecalibacterium = Faecalibacterium proliferative effect in vivo: cell number in feces of infants by real-time PCR; set-up: species or system human (infants); settings: for mean number of cells of Faecalibacterium (log10) / mean number of cells of Faecalibacterium per g feces: infants, oral, daily 1-3 g; for Significant difference (vs 0 week): Wilcoxon signed rank test; for cell number of Faecalibacterium over study period (in words): 12-week study
Source text: 58 infants from 6 months old to 6 years old were divided into 2 groups of 29 infants and they were designated 1-Kestose Group and Maltose Group. 1-Kestose Group took 1-kestose (purity 98% by mass or more, B Food Science Co., Ltd.) orally and Maltose Group took maltose (purity of 92% by mass or more, “Sunmalt-S” powder, Sanwa Starch Co., Ltd.) orally every day during the study period. The test period was 12 weeks. The daily intake of 1-kestose or maltose was 1 g (estimated intake; 0.121 g/kg body weight/day) for infants under 1 year old, 2 g (estimated intake; 0.169 g/kg body weight/day) for infants from 1 to 3 years old, and 3 g (estimated intake; 0.170 g/kg body weight/day) for infants from 4 to 6 years old. […] The estimated intake mentioned above was calculated based on the age-specific body weight data published in “2010 National growth survey on preschool children of the Ministry of Health, Labour and Welfare”. More specifically, the male and female medians were separately calculated from the minimums and the maximums of the body weight data within the age ranges of the study participants of Example 2 and the means of the medians were calculated. Subsequently, the male and female means of the means of the medians were calculated as estimated body weights. The estimated body weights were 8.26 kg for under 1 year old, 11.85 kg for 1 to 3 years old, and 17.62 kg for 4 to 6 years old. […] The numbers of cells of Faecalibacterium in the recovered feces were quantified by real-time PCR. Specifically, genomic DNA was first extracted from the feces using the reagent for genome extraction “Ultra Clean Soil DNA Isolation Kit” (Mo Bio Laboratories Inc.) and “High Pure PCR Template Preparation Kit” (Roche). […] The standard curve was generated based on the result of real-time PCR performed under the same conditions using genomic DNA extracted in the same way from Faecalibacterium prausnitzii strain ATCC27768 strain cultured in pure culture and counted under a microscope. The mean of cell numbers was calculated for each group.

[1] = tested on: Faecalibacterium prausnitzii strain ATCC27768; experiment: Faecalibacterium proliferative effect in vitro: culture turbidity with oligosaccharide added; format: cell-based; settings: for turbidity (OD value) at 660 nm: oligosaccharide 5.0 g/L, 37° C., anaerobic
Protocol: Liquid media of the following composition was prepared sterile. 1-Kestose (purity of 99% by mass, B Food Science Co., Ltd.), nystose (purity of 98% by mass, Wako Pure Chemical Industries, Ltd.), xylooligosaccharide (purity of 99% by mass, B Food Science Co., Ltd.), raffinose (purity of 98% by mass, Meiji Food Materia Co., Ltd.) and lactosucrose (purity of 89% by mass, Ensuiko Sugar Refining Co., Ltd.) were used as oligosaccharides. Moreover, a liquid medium of the following composition with no oligosaccharide was also prepared as a control.
[Composition of Liquid Medium/Per L] (Final pH: 7.0)
Casein digest 15.0 g, yeast extract 5.0 g, L-cystine 0.5 g, sodium chloride 2.5 g, thioglycolic acid 0.5 g, tryptophan 25 mg, hemin proper quantity, vitamin K1 proper quantity, oligosaccharide 5.0 g.
A prepared liquid medium was inoculated with Faecalibacterium prausnitzii strain ATCC27768 precultured until confluent to a turbidity with an OD (Optical Density) value at 660 nm of 0.05 to 0.06. The inoculated culture was cultured statically at 37° C. in anaerobic environment and the turbidity (OD value) at 660 nm was measured with a spectrophotometer 24 hours, 48 hours, and 72 hours later. Moreover, the relation between OD value and the duration of culture is illustrated in a line graph of FIG. 1. Moreover, OD values at a duration of time of 72 hours are illustrated in a bar graph of FIG. 2.

SMILES | mean number of cells of Faecalibacterium (log10) (Faecalibacterium; 0 week) [cells log10/g feces] | mean number of cells of Faecalibacterium per g feces (Faecalibacterium; 0 week) | change of cell number from 0 weeks (in words) (Faecalibacterium; 6 weeks) | Significant difference (vs 0 week) (Faecalibacterium; 6 weeks) | mean number of cells of Faecalibacterium (log10) (Faecalibacterium; 6 weeks) [cells log10/g feces] | mean number of cells of Faecalibacterium per g feces (Faecalibacterium; 6 weeks) | cell number of Faecalibacterium over study period (in words) (Faecalibacterium) | change of cell number from 0 weeks (in words) (Faecalibacterium; 12 weeks) | Significant difference (vs 0 week) (Faecalibacterium; 12 weeks) | mean number of cells of Faecalibacterium (log10) (Faecalibacterium; 12 weeks) [cells log10/g feces] | mean number of cells of Faecalibacterium per g feces (Faecalibacterium; 12 weeks) | turbidity (OD value) at 660 nm ([1]; duration of culture 0 hour) | turbidity (OD value) at 660 nm ([1]; duration of culture 24 hours) | turbidity (OD value) at 660 nm ([1]; duration of culture 48 hours) | turbidity (OD value) at 660 nm ([1]; duration of culture 72 hours) | OD values versus control and other oligosaccharides (in words) ([1]; 24 hours, 48 hours and 72 hours) | increase of cell number from 0 weeks (Faecalibacterium; 6 weeks) [times] | increase of cell number from 0 weeks (Faecalibacterium; 12 weeks) [times]
OC[C@H]1O[C@H](O[C@H]2[C@H](O)[C@@H](O)C(O)O[C@@H]2CO)[C@H](O)[C@@H](O)[C@@H]1O (mixture of isomers) [Maltose, maltose] | 6.88 | 7.6 × 10^6 cells/g feces | slightly decreased | Not found | 6.77 | 5.8 × 10^6 cells/g feces | did not increase | slightly increased | Not found | 7.12 | 1.3 × 10^7 cells/g feces |  |  |  |  |  |  | 
OC[C@H]1O[C@@](CO)(OC[C@@]2(OC[C@@]3(O[C@H]4O[C@H](CO)[C@@H](O)[C@H](O)[C@H]4O)O[C@H](CO)[C@@H](O)[C@@H]3O)O[C@H](CO)[C@@H](O)[C@@H]2O)[C@@H](O)[C@@H]1O [Nystose, nystose] |  |  |  |  |  |  |  |  |  |  |  | 0.063 | 0.290 | 0.443 | 0.305 |  |  | 
OC[C@H]1O[C@H](OC[C@H]2O[C@H](O[C@]3(CO)O[C@H](CO)[C@@H](O)[C@@H]3O)[C@H](O)[C@@H](O)[C@@H]2O)[C@H](O)[C@@H](O)[C@H]1O [Raffinose, raffinose] |  |  |  |  |  |  |  |  |  |  |  | 0.052 | 0.251 | 0.191 | 0.246 |  |  | 
OC[C@H]1O[C@@H](O[C@H]2[C@H](O)[C@@H](O)[C@@H](O[C@]3(CO)O[C@H](CO)[C@@H](O)[C@@H]3O)O[C@@H]2CO)[C@H](O)[C@@H](O)[C@H]1O [Lactosucrose, lactosucrose] |  |  |  |  |  |  |  |  |  |  |  | 0.055 | 0.298 | 0.448 | 0.295 |  |  | 
OC[C@H]1O[C@@](CO)(OC[C@@]2(O[C@H]3O[C@H](CO)[C@@H](O)[C@H](O)[C@H]3O)O[C@H](CO)[C@@H](O)[C@@H]2O)[C@@H](O)[C@@H]1O [1-kestose] | 6.57 | 3.7 × 10^6 cells/g feces |  | Not found | 7.16 | 1.4 × 10^7 cells/g feces | increased markedly |  | Found | 7.54 | 3.5 × 10^7 cells/g feces | 0.063 | 0.345 | 0.885 | 1.803 | markedly greater | ≥ 3.5 | ≥ 9
